According to patent publication US7064120B2, “Tricyclic pyridyl carboxamides and derivatives thereof tocolytic oxytocin receptor antagonists” (Wyeth, priority 2001, dated 2006):

Target: T1, human vasopressin V1a receptor subtype (Homo sapiens, UniProt P37288)
T1 construct: host or cells: CHO cells, stably transfected (pZeoSV vector for the Thibonnier line)
Test: Vasopressin binding in CHO cell membranes expressing human vasopressin V1a subtype receptors ([3H]Manning ligand radioligand binding)
Conditions: 100 nM
Protocol: Vasopressin Binding in Chinese Hamster Ovary Cell Membranes Expressing Human Vasopressin V1a Subtype Receptors
The trypsin is removed by aspiration and the cells dislodged by tapping. Cell Culture medium (e.g. 30 mL for 1:30 split) is immediately added and mixed well to inactivate trypsin. 1 mL of detached cells is added to new culture flasks containing fresh cell culture medium (e.g., into 25 mL per T-150 flask), and mixed gently. The cells are incubated at 37° C. in 5% CO2. The medium is changed at 3 to 4 days interval (or as appropriate). […] All steps are done under sterile conditions.
The cells are washed twice gently with Hank's Balanced Salt solution (e.g,. use 10 mL per T-150 flask). […] The contents are transferred to centrifuge tubes (50 mL) kept in an ice bath. All subsequent steps are done at 4° C. The tubes are centrifuged at 300×g for 15 min (1380 rpm on SORVAL, Model RT6000D, using the rotor for 50 mL tubes). The supernatant is discarded and the cells suspended in homogenizing buffer(10 mM Tris-HCl containing 0.25 M sucrose and 1 mM EDTA, pH 7.4) ensuring that the volume of the buffer is about ten times the volume of the cell pellet. The cells are pooled into a centrifuge tube (50 mL) and homogenized with Polytron at setting 6 for 10 sec. The homogenate is transferred into a Potter-Elvjehm homogenizer and homogenized with 3 strokes. The homogenate is centrifuged at 1500×g for 10 min at 4° C. (3100 rpm using SORVAL, model RT6000D, using the rotor for 50 mL tubes). The pellet is discarded. The supernatant is centrifuged at 100,000×g for 60 min. at 4° C. (Beckman L8-80M ultracentrifuge; spin at 37,500 rpm with rotor type 70 Ti for 50 mL tubes; 38,000 rpm with type 80Ti for 15 mL tubes; or 35,800 rpm with rotor type 45Ti). The supernantant is discarded and the pellet suspended in 3 to 4 mL of Tris buffer (50 mM TRIS-HCl, pH 7.4). The protein content is estimated by the Bradford or Lowry method. The volume of the membrane suspension is adjusted with the membrane buffer (50 mM Tris-HCl containing 0.1% BSA and 0.1 mM PMSF) to give 3.0 mg/mL (or as appropriate) of protein. The membranes are aliquoted and stored at −70° C.
In wells of a 96-well format microtiter plate, is added 90, 110 or 130 μL (to make up a final volume of 200 μL) of assay buffer containing 50 mM of Tris-HCl (pH 7.4), BSA (heat inactivated, protease-free), […], 1 mg % aprotinin, 1 mg % leupeptin, 2 mg % 1,10-phenanthroline, 10 mg % trypsin inhibitor, and 0.1 mM PMSF. The inhibitors are added on the day of the experiment. The components are mixed at room temperature, and then kept in ice bath following adjustment of the pH to 7.4. […] 20 μL of 50% DMSO is added for Manning and other peptide ligands and the assay buffer volume is adjusted accordingly. To each well is added 50 μL of frozen membrane suspension thawed immediately prior to use and diluted in the assay buffer to the required concentration (equivalent to 25 to 50 μg of protein/well as needed). 20 μL of 8 nM [^3H]Manning ligand in the assay buffer, prepared just before use, is added, and incubated at room temperature for 60 min. shaking the plate on a mechanical shaker for the first 15 min. The incubation is stopped by rapid filtration of the plate contents followed by wash with ice-cold buffer (50 mM Tris-HCl, pH 7.4) using a cell harvester (Tomtek and Printed filtermat-B filter paper). The filter paper is thoroughly dried (7–12 min. in a microwave oven) and impregnated with MeltiLex B/H melt-on scintillation wax sheets and the radioactivity counted in a betaplate scintillation counter.
Binding data is either reported as percent inhibition at a certain concentration or if an IC50 was calculated, as a nanomolar concentration.

T1 sequence (P37288 whole entry): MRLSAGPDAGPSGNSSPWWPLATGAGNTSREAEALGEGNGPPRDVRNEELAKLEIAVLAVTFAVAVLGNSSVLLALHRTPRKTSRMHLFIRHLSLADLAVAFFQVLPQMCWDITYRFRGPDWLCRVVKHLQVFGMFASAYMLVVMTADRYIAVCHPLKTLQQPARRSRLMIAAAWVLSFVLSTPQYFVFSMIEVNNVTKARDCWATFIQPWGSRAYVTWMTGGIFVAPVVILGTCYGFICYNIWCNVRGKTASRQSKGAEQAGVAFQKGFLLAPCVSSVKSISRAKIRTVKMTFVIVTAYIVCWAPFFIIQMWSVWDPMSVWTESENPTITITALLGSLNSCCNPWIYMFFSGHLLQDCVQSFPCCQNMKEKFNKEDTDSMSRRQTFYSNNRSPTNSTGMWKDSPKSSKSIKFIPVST

| Structure (SMILES) | inhibition at 0.1 µM [%] | V1a % inhibition @ 100 nM [%] |
| --- | --- | --- |
| COc1ccccc1-c1ccc(C(=O)N2Cc3ccc(C(=O)N(C)CCc4ccccn4)n3Cc3ccccc32)cc1OC [Example 64, 10-[(2,2′-Dimethoxy-[1,1′-biphenyl]-4-yl)carbonyl]-N-methyl-N-[2-(2-pyridinyl)ethyl]-10,11-dihydro-5H-pyrrolo[2,1-c][1,4]benzodiazepine-3-carboxamide] | 21 | – |
| COc1cccc(-c2cc(OC)c(C(=O)N3Cc4ccc(C(=O)NCCc5ccccn5)n4Cc4ccccc43)cc2Cl)c1 [Example 56, 10-[(6-Chloro-3,3′-dimethoxy-[1,1′-biphenyl]-4-yl)carbonyl]-N-[2-(2-pyridinyl)ethyl]-10,11-dihydro-5H-pyrrolo[2,1-c][1,4]benzodiazepine-3-carboxamide] | -11 | – |
| COc1cccc(-c2ccc(C(=O)N3Cc4ccc(C(=O)NCCc5ccccn5)n4Cc4ccccc43)cc2OC)c1 [Example 59, 10-[(2,3′-Dimethoxy-[1,1′-biphenyl]-4-yl)carbonyl]-N-[2-(2-pyridinyl)ethyl]-10,11-dihydro-5H-pyrrolo[2,1-c][1,4]benzodiazepine-3-carboxamide] | 12 | – |
| COc1cc(C(=O)N2Cc3ccc(C(=O)N4CCN(c5ccncc5)CC4)n3Cc3ccccc32)ccc1-n1c(C)ccc1C [Example 146, {10-[4-(2,5-Dimethyl-1H-pyrrol-1-yl)-3-methoxybenzoyl]-10,11-dihydro-5H-pyrrolo[2,1-c][1,4]benzodiazepin-3-yl}[4-(pyridin-4-yl)-1-piperazinyl]methanone] | 11 | – |
| COc1cc(C(=O)N2Cc3ccc(C(=O)NCc4ccccn4)n3Cc3ccccc32)ccc1-c1cccc2ccccc12 [Example 31, 10-[3-Methoxy-4-(naphthalen-1-yl)benzoyl]-N-(2-pyridinylmethyl)-10,11-dihydro-5H-pyrrolo[2,1-c][1,4]benzodiazepine-3-carboxamide] | 6 | – |
| COc1cc(-c2ccccc2C)c(Cl)cc1C(=O)N1Cc2ccc(C(=O)N3CCN(c4ccncc4)CC3)n2Cc2ccccc21 [Example 119, {10-[(6-Chloro-3-methoxy-2′-methyl-[1,1′-biphenyl]-4-yl)carbonyl]-10,11-dihydro-5H-pyrrolo[2,1-c][1,4]benzodiazepin-3-yl}[4-(4-pyridinyl)-1-piperazinyl]methanone] | 9 | – |
| COc1cc(C(=O)N2Cc3ccc(C(=O)NCCc4ccccn4)n3Cc3ccccc32)ccc1-c1ccccc1C [Example 54, 10-[(2-Methoxy-2′-methyl-[1,1′-biphenyl]-4-yl)carbonyl]-N-[2-(2-pyridinyl)ethyl]-10,11-dihydro-5H-pyrrolo[2,1-c][1,4]benzodiazepine-3-carboxamide] | 30 | – |
| COc1cc(C(=O)N2Cc3ccc(C(=O)N(C)CCc4ccncc4)n3Cc3ccccc32)ccc1-n1c(C)ccc1C [Example 147, 10-[4-(2,5-Dimethyl-1H-pyrrol-1-yl)-3-methoxybenzoyl]-N-methyl-N-[2-(pyridin-4-yl)ethyl]-10,11-dihydro-5H-pyrrolo[2,1-c][1,4]benzodiazepine-3-carboxamide] | 15 | – |
| COc1cccc(-c2ccc(C(=O)N3Cc4ccc(C(=O)N(C)Cc5cccnc5)n4Cc4ccccc43)cc2OC)c1 [Example 110] | – | 49 |
| COc1cccc(-c2ccc(C(=O)N3Cc4ccc(C(=O)N5CCN(c6ccncc6)CC5)n4Cc4ccccc43)cc2OC)c1 [Example 123, {10-[(2,3′-Dimethoxy-[1,1′-biphenyl]-4-yl)carbonyl]-10,11-dihydro-5H-pyrrolo[2,1-c][1,4]benzodiazepin-3-yl}[4-(4-pyridinyl)-1-piperazinyl]methanone] | 71 | – |
| COc1cc(C(=O)N2Cc3ccc(C(=O)N(C)Cc4cccnc4)n3Cc3ccccc32)ccc1-c1cccc2ccccc12 [Example 109, 10-[3-Methoxy-4-(naphthalen-1-yl)benzoyl]-N-methyl-N-(3-pyridinylmethyl)-10,11-dihydro-5H-pyrrolo[2,1-c][1,4]benzodiazepine-3-carboxamide] | 7 | – |
| COc1ccccc1-c1ccc(C(=O)N2Cc3ccc(C(=O)N4CCN(c5ccncc5)CC4)n3Cc3ccccc32)cc1 [Example 116, {10-[(2′-Methoxy-[1,1′-biphenyl]-4-yl)carbonyl]-10,11-dihydro-5H-pyrrolo[2,1-c][1,4]benzodiazepin-3-yl}[4-(4-pyridinyl)-1-piperazinyl]methanone] | 77 | – |
| O=C(c1ccc2n1Cc1ccccc1N(C(=O)c1ccc(-c3cccc4ccccc34)cc1Cl)C2)N1CCN(c2ccncc2)CC1 [Example 124, {10-[2-Chloro-4-(naphthalen-1-yl)benzoyl]-10,11-dihydro-5H-pyrrolo[2,1-c][1,4]benzodiazepin-3-yl}[4-(4-pyridinyl)-1-piperazinyl]methanone] | 11 | – |

Second part, led by results:

| inhibition at 0.1 µM [%] | Structure (SMILES) | V1a % inhibition @ 100 nM [%] |
| --- | --- | --- |
| 21 | COc1ccccc1-c1ccc(C(=O)N2Cc3ccc(C(=O)N4CCCCC4c4cccnc4)n3Cc3ccccc32)cc1 (centres unmarked) [Example 139, {10-[(2′-Methoxy-[1,1′-biphenyl]-4-yl)carbonyl]-10,11-dihydro-5H-pyrrolo[2,1-c][1,4]benzodiazepin-3-yl}[2-(3-pyridinyl)-1-piperidinyl]methanone] | – |
| 4 | Cc1cc(C(=O)N2Cc3ccc(C(=O)NCc4ccccn4)n3Cc3ccccc32)ccc1-c1ccccc1C(F)(F)F [Example 35, 10-{[2-Methyl-2′-trifluoromethyl-[1,1′-biphenyl]-4-yl]carbonyl}-N-(2-pyridinylmethyl)-10,11-dihydro-5H-pyrrolo[2,1-c][1,4]benzodiazepine-3-carboxamide] | – |
| 8 | COc1ccccc1-c1ccc(C(=O)N2Cc3ccc(C(=O)N4CCCCC4c4cccnc4)n3Cc3ccccc32)cc1C (centres unmarked) [Example 138, {10-[(2′-Methoxy-2-methyl-[1,1′-biphenyl]-4-yl)carbonyl]-10,11-dihydro-5H-pyrrolo[2,1-c][1,4]benzodiazepin-3-yl}[2-(3-pyridinyl)-1-piperidinyl]methanone] | – |
| 21 | COc1cccc(-c2ccc(C(=O)N3Cc4ccc(C(=O)NCc5ccccn5)n4Cc4ccccc43)cc2C)c1 [Example 25, 10-[(3′-Methoxy-2-methyl-[1,1′-biphenyl]-4-yl)carbonyl]-N-(2-pyridinylmethyl)-10,11-dihydro-5H-pyrrolo[2,1-c][1,4]benzodiazepine-3-carboxamide] | – |
| 11 | COc1cc(C(=O)N2Cc3ccc(C(=O)NCc4cccnc4)n3Cc3ccccc32)ccc1-c1cccc2ccccc12 [Example 44, 10-[3-Methoxy-4-(naphthalen-1-yl)benzoyl]-N-(3-pyridinylmethyl)-10,11-dihydro-5H-pyrrolo[2,1-c][1,4]benzodiazepine-3-carboxamide] | – |
| -5 | Cc1cc(C(=O)N2Cc3ccc(C(=O)N4CCCCC4c4cccnc4)n3Cc3ccccc32)ccc1-c1ccccc1C(F)(F)F (centres unmarked) [Example 142, (10-{[2-Methyl-2′-trifluoromethyl-[1,1′-biphenyl]-4-yl]carbonyl}-10,11-dihydro-5H-pyrrolo[2,1-c][1,4]benzodiazepin-3-yl)[2-(3-pyridinyl)-1-piperidinyl]methanone] | – |
| -1 | Cc1cc(C(=O)N2Cc3ccc(C(=O)N(C)CCc4ccncc4)n3Cc3ccccc32)ccc1-c1ccccc1C(F)(F)F [Example 137, N-Methyl-10-{[2-methyl-2′-trifluoromethyl-[1,1′-biphenyl]-4-yl]carbonyl}-N-[2-(4-pyridinyl)ethyl]-10,11-dihydro-5H-pyrrolo[2,1-c][1,4]benzodiazepine-3-carboxamide] | – |
